One data set has as its system HepG2. In words: HepG2 growth inhibition. Type of data set: cell-based. The note with it: Homo sapiens, HepG2, read-out: human cells, GI50 HepG2.
The target in the next data set is Src (Homo sapiens, UniProt P12931). Put plainly: Src tyrosine kinase inhibition. Type of data set: biochemical.
The next data set has as its system CRL-8155. Put plainly: CRL-8155 growth inhibition. As to conditions: Homo sapiens, CRL8155, read-out: human cells, GI50 CRL-8155. Type of data set: cell-based.
Another data set addresses hERG (Homo sapiens, UniProt Q12809).
The next data set in a line: physchem. As to conditions: phosphate-buffered saline, pH 6.5, Solubility.
The conditions of data set [1]: phosphate-buffered saline, pH 6.5.
The nature of a further data set: in vitro. As to conditions: mouse.

In brackets after ≈: the same amount, converted by molar mass. Where two headings read alike, the source gives them in different places.

Src, sequence (P12931 whole entry, species assumed): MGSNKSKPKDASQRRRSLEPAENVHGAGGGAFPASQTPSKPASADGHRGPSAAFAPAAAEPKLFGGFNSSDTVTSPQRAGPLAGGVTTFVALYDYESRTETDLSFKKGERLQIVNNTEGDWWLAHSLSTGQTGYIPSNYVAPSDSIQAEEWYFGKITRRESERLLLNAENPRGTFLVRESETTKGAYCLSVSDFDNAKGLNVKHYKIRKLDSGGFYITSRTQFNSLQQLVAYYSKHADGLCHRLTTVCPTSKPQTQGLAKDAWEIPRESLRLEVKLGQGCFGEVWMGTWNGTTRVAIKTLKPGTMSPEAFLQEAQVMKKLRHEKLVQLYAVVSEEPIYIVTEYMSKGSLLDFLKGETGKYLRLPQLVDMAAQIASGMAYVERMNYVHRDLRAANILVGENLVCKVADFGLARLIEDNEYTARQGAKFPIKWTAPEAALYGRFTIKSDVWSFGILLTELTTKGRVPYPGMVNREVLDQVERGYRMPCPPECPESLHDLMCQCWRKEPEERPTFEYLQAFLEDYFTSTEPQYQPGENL
hERG, sequence (Q12809 whole entry): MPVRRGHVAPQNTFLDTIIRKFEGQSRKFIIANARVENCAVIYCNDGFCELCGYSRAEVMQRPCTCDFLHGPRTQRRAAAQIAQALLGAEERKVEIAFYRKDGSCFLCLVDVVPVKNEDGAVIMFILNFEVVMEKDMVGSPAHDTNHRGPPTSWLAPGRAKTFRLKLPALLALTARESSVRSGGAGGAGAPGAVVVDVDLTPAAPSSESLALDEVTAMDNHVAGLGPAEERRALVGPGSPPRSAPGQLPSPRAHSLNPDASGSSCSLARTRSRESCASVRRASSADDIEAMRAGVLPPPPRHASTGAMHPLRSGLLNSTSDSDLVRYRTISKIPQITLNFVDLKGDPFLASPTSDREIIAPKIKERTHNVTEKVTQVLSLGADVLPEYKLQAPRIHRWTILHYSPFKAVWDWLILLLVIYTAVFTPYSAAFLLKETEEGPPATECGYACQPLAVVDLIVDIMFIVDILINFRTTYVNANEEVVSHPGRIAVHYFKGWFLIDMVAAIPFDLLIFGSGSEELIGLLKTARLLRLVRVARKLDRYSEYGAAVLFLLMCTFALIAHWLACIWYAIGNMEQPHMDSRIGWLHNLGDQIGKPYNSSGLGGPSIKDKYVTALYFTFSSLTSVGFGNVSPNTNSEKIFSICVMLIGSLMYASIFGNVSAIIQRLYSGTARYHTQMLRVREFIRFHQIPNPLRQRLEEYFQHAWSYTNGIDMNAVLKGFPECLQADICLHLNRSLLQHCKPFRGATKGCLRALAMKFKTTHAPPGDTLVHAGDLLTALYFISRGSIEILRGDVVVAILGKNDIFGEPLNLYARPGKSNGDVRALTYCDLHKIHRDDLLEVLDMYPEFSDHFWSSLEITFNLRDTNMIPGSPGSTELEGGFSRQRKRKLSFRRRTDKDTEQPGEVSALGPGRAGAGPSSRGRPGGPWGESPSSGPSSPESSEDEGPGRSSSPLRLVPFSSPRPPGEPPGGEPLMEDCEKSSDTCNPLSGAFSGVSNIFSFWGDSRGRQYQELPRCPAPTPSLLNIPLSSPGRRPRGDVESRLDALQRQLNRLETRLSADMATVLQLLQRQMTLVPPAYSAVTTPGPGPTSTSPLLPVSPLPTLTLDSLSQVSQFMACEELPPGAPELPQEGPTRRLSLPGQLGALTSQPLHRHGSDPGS

The term GI50 denotes the concentration giving 50% growth inhibition. One may read the IC50 as the concentration that gives 50% inhibition. `CCOc1ccc2cc(-c3nn(CC4CNC4)c4ncnc(N)c34)ccc2c1` [Compound 5]: the GI50 with HepG2 and with CRL-8155 was above 10 µM in each case. In addition, on Src, the IC50 was above 10 µM.
As to `CCOc1ccc2cc(-c3nn(CC4CN(C)C4)c4ncnc(N)c34)ccc2c1` [Compound 6], the GI50 with HepG2 and with CRL-8155 was above 10 µM in each case. The same molecule had a half-maximal inhibitory concentration (IC50) against Src above 10 µM.
Regarding `CCOc1ccc2cc(-c3nn(CC4CCN(C(C)C)CC4)c4ncnc(N)c34)ccc2c1` [Compound 7], the GI50 in the data set on HepG2 and with CRL-8155 was above 10 µM in each case. Besides, on Src, the IC50 is above 10 µM.
On to `CCOc1ccc2cc(-c3nn(CC4CCN(C(C)=O)CC4)c4ncnc(N)c34)ccc2c1` [Compound 8], for which the GI50 in the data set on HepG2 and in the data set with CRL-8155 was above 10 µM throughout.
Consider `CCOc1ccc2cc(-c3nn(CC4CN(C(C)=O)C4)c4ncnc(N)c34)ccc2c1` [Compound 9], for which the GI50 with HepG2 and with CRL-8155 was above 10 µM throughout.
As to `CN1CCC(Cn2nc(-c3ccc4cc(OCC5CC5)ccc4c3)c3c(N)ncnc32)CC1` [Compound 10, 3-(6-(Cyclopropylmethoxy)naphthalen-2-yl)-1-((1-methylpiperidin-4-yl)methyl)-1H-pyrazolo[3,4-d]pyrimidin-4-amine], the GI50 in the data set on HepG2 and in the data set with CRL-8155 was above 10 µM each time. The same molecule registered an IC50 against Src above 10 µM.
Turning to `CN1CCC(Cn2nc(-c3ccc4cc(OC5CCC5)ccc4c3)c3c(N)ncnc32)CC1` [Compound 11, 3-(6-Cyclobutoxynaphthalen-2-yl)-1-((1-methylpiperidin-4-yl)methyl)-1H-pyrazolo[3,4-d]pyrimidin-4-amine], the GI50 with HepG2 and in the data set on CRL-8155 was above 10 µM throughout. Besides, the IC50 against Src was above 10 µM.
Molecule `CN1CCC(Cn2nc(-c3ccc4cc(OC5CC5)ccc4c3)c3c(N)ncnc32)CC1` [Compound 12, 3-(6-Cyclopropoxynaphthalen-2-yl)-1-((1-methylpiperidin-4-yl)methyl)-1H-pyrazolo[3,4-d]pyrimidin-4-amine] had an IC50 against Src above 10 µM. Further, the GI50 in the data set with CRL-8155 is above 10 µM.
With `COCCOc1ccc2cc(-c3nn(CC4CCN(C)CC4)c4ncnc(N)c34)ccc2c1` [Compound 13, 3-(6-(2-Methoxyethoxy)naphthalen-2-yl)-1-((1-methylpiperidin-4-yl)methyl)-1H-pyrazolo[3,4-d]pyrimidin-4-amine], the GI50 in the data set on HepG2 and in the data set with CRL-8155 was above 10 µM each time. Further, the IC50 against Src was above 10 µM.
On to `CN1CCC(Cn2nc(-c3ccc4cc(OC5COC5)ccc4c3)c3c(N)ncnc32)CC1` [Compound 14, 1-((1-Methylpiperidin-4-yl)methyl)-3-(6-(oxetan-3-yloxy)naphthalen-2-yl)-1H-pyrazolo[3,4-d]pyrimidin-4-amine], for which the GI50 in the data set with HepG2 and with CRL-8155 was above 10 µM each time. Also, the IC50 against Src is above 10 µM.
As to `CN1CCC(Cn2nc(-c3ccc4cc(OCC(C)(C)O)ccc4c3)c3c(N)ncnc32)CC1` [Compound 16, 1-(6-(4-Amino-1-((1-methylpiperidin-4-yl)methyl)-1H-pyrazolo[3,4-d]pyrimidin-3-yl)naphthalen-2-yloxy)-2-methylpropan-2-ol], the GI50 in the data set with HepG2 and in the data set with CRL-8155 was above 10 µM in each case. The same molecule came in with an IC50 on Src above 10 µM.
On Src, `CCOc1ccc2cc(-c3nn(CC4CCN(C)CC4)c4ncnc(N)c34)ccc2n1` [Compound 17, 3-(2-Ethoxyquinolin-6-yl)-1-((1-methylpiperidin-4-yl)methyl)-1H-pyrazolo[3,4-d]pyrimidin-4-amine] displayed an IC50 above 10 µM. Moreover, the “lower activity against hERG than 1” value on hERG was determined as 25 fold.
With `CN1CCC(Cn2nc(-c3ccc4nc(OC5CC5)ccc4c3)c3c(N)ncnc32)CC1` [Compound 19, 3-(2-Cyclopropoxyquinolin-6-yl)-1-((1-methylpiperidin-4-yl)methyl)-1H-pyrazolo[3,4-d]pyrimidin-4-amine], the GI50 in the data set on HepG2 is above 10 µM. The molecule also registered an IC50 on Src above 10 µM.
Take `CN(C)CC(C)(C)Cn1nc(-c2ccc3nc(OC4CC4)ccc3c2)c2c(N)ncnc21` [Compound 20, 3-(2-Cyclopropoxyquinolin-6-yl)-1-(3-(dimethylamino)-2,2-dimethylpropyl)-1H-pyrazolo[3,4-d]pyrimidin-4-amine]: the GI50 in the data set on HepG2 and in the data set on CRL-8155 was above 10 µM in each case. Further, the IC50 against Src is above 10 µM.
For the molecule `CCOc1ccc2cc(-c3nn(CC(C)C)c4ncnc(N)c34)ccc2c1` [Compound 21, 3-(6-Ethoxynaphthalen-2-yl)-1-isobutyl-1H-pyrazolo[3,4-d]pyrimidin-4-amine], the GI50 with HepG2 and in the data set with CRL-8155 was above 10 µM throughout. Further, the IC50 against Src is above 10 µM.
Take `CC(C)Cn1nc(-c2ccc3cc(OC4CC4)ccc3c2)c2c(N)ncnc21` [Compound 22, 3-(6-Cyclopropoxynaphthalen-2-yl)-1-isobutyl-1H-pyrazolo[3,4-d]pyrimidin-4-amine]: the GI50 with CRL-8155 is above 10 µM.
`CC(C)Cn1nc(-c2ccc3nc(OC4CC4)ccc3c2)c2c(N)ncnc21` [Compound 23, 3-(2-Cyclopropoxyquinolin-6-yl)-1-isobutyl-1H-pyrazolo[3,4-d]pyrimidin-4-amine]: the GI50 in the data set on HepG2 and in the data set with CRL-8155 was above 10 µM in each case. The same molecule registered an IC50 against Src above 10 µM.
For `CC1(Cn2nc(-c3ccc4cc(OC5CC5)ccc4c3)c3c(N)ncnc32)COC1` [Compound 24, 3-(6-Cyclopropoxynaphthalen-2-yl)-1-((3-methyloxetan-3-yl)methyl)-1H-pyrazolo[3,4-d]pyrimidin-4-amine], the GI50 in the data set with HepG2 and with CRL-8155 was above 10 µM in each case. This molecule also came in with an IC50 against Src above 10 µM.
As to `CC1(Cn2nc(-c3ccc4nc(OC5CC5)ccc4c3)c3c(N)ncnc32)COC1` [Compound 25, 3-(2-Cyclopropoxyquinolin-6-yl)-1-((3-methyloxetan-3-yl)methyl)-1H-pyrazolo[3,4-d]pyrimidin-4-amine], the GI50 in the data set on HepG2 and in the data set with CRL-8155 was above 10 µM in each case. Besides, the IC50 on Src was above 10 µM.
In the case of `CCOc1ccc2cc(-c3nn(CC4CCOCC4)c4ncnc(N)c34)ccc2c1` [Compound 26], the 50% growth inhibitory concentration (GI50) in the data set with HepG2 and in the data set with CRL-8155 was above 10 µM each time. The molecule further registered an IC50 against Src above 10 µM.
For the molecule `CCOc1ccc2cc(-c3nn(CC4CCOCC4)c4ncnc(N)c34)ccc2n1` [Compound 27], the GI50 in the data set with HepG2 and in the data set on CRL-8155 was above 10 µM each time. For the same molecule, the IC50 against Src is above 10 µM.
For the molecule `Nc1ncnc2c1c(-c1ccc3cc(OC4CC4)ccc3c1)nn2CC1CCOCC1` [Compound 28, 3-(6-Cyclopropoxynaphthalen-2-yl)-1-((tetrahydro-2H-pyran-4-yl)methyl)-1H-pyrazolo[3,4-d]pyrimidin-4-amine], the concentration for 50% growth inhibition (GI50) in the data set with HepG2 and in the data set with CRL-8155 was above 10 µM in each case.
The solubility is how much of the substance goes into solution per volume. For the molecule `Nc1ncnc2c1c(-c1ccc3nc(OC4CC4)ccc3c1)nn2CC1CCOCC1` [Compound 29, 3-(2-Cyclopropoxyquinolin-6-yl)-1-((tetrahydro-2H-pyran-4-yl)methyl)-1H-pyrazolo[3,4-d]pyrimidin-4-amine], the GI50 in the data set with HepG2 and with CRL-8155 was above 10 µM throughout. Also, the solubility in “physchem” was below 20 µM; in data set [1] it was 17 µM (≈ 7.08 µg/mL). This molecule also displayed an IC50 against Src above 10 µM.
For `CCOc1ccc2cc(-c3nn(CC(C)(C)O)c4ncnc(N)c34)ccc2c1` [Compound 30, 1-(4-Amino-3-(6-ethoxynaphthalen-2-yl)-1H-pyrazolo[3,4-d]pyrimidin-1-yl)-2-methylpropan-2-ol], the GI50 in the data set on HepG2 and in the data set on CRL-8155 was above 10 µM throughout. Also, the half-inhibitory concentration (IC50) against Src was above 10 µM.
`CCOc1ccc2cc(-c3nn(CC(C)(C)O)c4ncnc(N)c34)ccc2n1` [Compound 31, 1-(4-Amino-3-(2-ethoxyquinolin-6-yl)-1H-pyrazolo[3,4-d]pyrimidin-1-yl)-2-methylpropan-2-ol]: the 50% growth inhibitory concentration (GI50) with HepG2 and in the data set on CRL-8155 was above 10 µM each time. Besides, on Src, the IC50 was above 10 µM.
As a reminder, the EC50 is the concentration needed to bring the measured effect to its halfway point. Turning to `CC(C)(O)Cn1nc(-c2ccc3nc(OC4CC4)ccc3c2)c2c(N)ncnc21` [Compound 33, 1-(4-Amino-3-(2-cyclopropoxyquinolin-6-yl)-1H-pyrazolo[3,4-d]pyrimidin-1-yl)-2-methylpropan-2-ol], the GI50 with HepG2 and with CRL-8155 was above 10 µM throughout. Moreover, it took 1.33 µM to reach a half-maximal effect in “in vitro” (EC50).
Turning to `CC(C)(CO)Cn1nc(-c2ccc3nc(OCC(F)(F)F)ccc3c2)c2c(N)ncnc21` [Compound 36, 3-(4-Amino-3-(2-(2,2,2-trifluoroethoxy)quinolin-6-yl)-1H-pyrazolo[3,4-d]pyrimidin-1-yl)-2,2-dimethylpropan-1-ol], on Src, the IC50 was above 10 µM.
Take `Nc1ncnc2c1c(-c1ccc3cc(OC4CC4)ccc3c1)nn2CC(O)(C(F)(F)F)C(F)(F)F` [Compound 37, 2-((4-Amino-3-(6-cyclopropoxynaphthalen-2-yl)-1H-pyrazolo[3,4-d]pyrimidin-1-yl)methyl)-1,1,1,3,3,3-hexafluoropropan-2-ol]: the GI50 with HepG2 and with CRL-8155 was above 10 µM in each case. Further, the IC50 at Src was above 10 µM.
